The values below come from patent US20260183432A1, “IMAGING AGENTS FOR DETECTING CD206+ MACROPHAGES” (THE GENERAL HOSPITAL CORPORATION, priority 2022, published 2026).

pIC50: −log10 of the molar value. Entries after “also recorded” stand apart in the source; their conditions may differ.

In series [1] the test system is CD206+ macrophages. The series is described as follows: MR imaging in mouse model of cutaneous wound healing. The series is classed as in vivo. As to conditions: for contrast-to-noise ratio (CNR) time course: wildtype mice, day 7 after wound induction. As to the method: Eight-to nine-week-old C57BL/6J female mice were used for MRI of wound healing and glioma (Jackson Laboratory, ME). The generation of wound healing and glioma is described in Examples 14 and 15, respectively. The mice with subcutaneous wounds were imaged on days 1, 4, and 7 longitudinally or on day 7. Mice with glioma were imaged on the third week. All the mice were imaged pre- and at 0, 15, 30, 45 and 60 min after 0.3 mmol/kg of Mann2-DTPA-Gd or MannGdFish was administered intravenously via a tail vein using serial T1 rapid acquisition with relaxation enhancement (RARE) sequence (TR: 935.77 ms, TE: 13.59 ms, averages: 12, rare factor: 4, 256×256×48 matrix size, 0.156×0.156×1 mm^3 voxel size) with chemical fat suppression using a Hermitian pulse shape with an 8.253 ms pulse and 701.19 Hz bandwidth 3.5 ppm down from the water peak and respiratory gating on a 4.7 T small animal MR scanner (Bruker, Cambridge, MA) with a 3 cm quadrature volume coil (Rapid MR International, Germany). Regions of interest (ROIs) were drawn and the contrast-to-noise ratios (CNRs, CNRpre-contrast subtracted) were calculated by a radiologist with over 20 years of experience blinded to the identity of the imaging agent used and the strain of the mice (n=3 per group).
Wound healing procedure. Seven-to ten-week-old C57BL/6J female mice (The Jackson Laboratories, ME) and mannose-receptor deficient mice were used in this study. A circular outline on the back of a mouse was made with a 4 mm biopsy punch (Kai Medical, Japan) under anesthesia using isoflurane. Then a full-thickness excisional wound was generated that extended through the subcutaneous tissue. A silicone splint was glued over the wound, anchored with 6-0 nylon sutures, and covered with a transparent occlusive dressing (OpSite). Xylazine/norepinephrine (100 μL) were intraperitoneally injected twice a day for two days and the mice were monitored daily.

A short description of series [2]: blood half-life by ICP-MS. The series is classed as in vivo, mouse. As to conditions: two-phase exponential model. As to the method: (§1) 6-10 weeks old of C57BL/6J mice were administered with MannGdFish intravenously 24 h after the wound injury. At 3 h and on day 7 after induction, mice were sacrificed and major organs including wound skins and the counter skins were harvested (n=3 for each time point). Blood samples were collected before and at different time points after the administration of MannGdFish (n=6) and centrifuged to obtain the plasma. The samples were weighed, treated with nitric acid, and subjected to inductively coupled plasma mass spectrometry (ICP-MS) to determine the amount of gadolinium as described in Example 6.

A short description of series [3]: in vitro relaxivity (r1), Bruker Minispect. The series is classed as physicochemical. As to the method:
Relaxation time (T1) of Mann2-DTPA-Gd/MannGdFish at concentrations of 0.1, 0.2, 0.3, 0.5, 0.6, 0.75, and 1 mM in PBS was measured on the Bruker Minispect (Bruker Analytics, MA) at 0.47 T (20 MHz) at 40° C. The slope value of the linear function of 1/T1 (s) to their corresponding concentrations is defined as the relaxivity (n=3 for each concentration).

A short description of series [4]: biodistribution and retention by ICP-MS in mice with cutaneous wound. The series is classed as in vivo, mouse. As to the method: as §1
In series [5] the test system is RAW 264.7 cells. The series is described as follows: cytotoxicity, MTT assay. The series is classed as cell-based. The conditions noted are these: n=3. As to the method: The cytotoxicity of MannGdFish was evaluated using RAW264.7 cells (Passage 8 from the cell core of the Center for Systems Biology at Massachusetts General Hospital, Boston) with an MTT assay as described by Wang et. al (J Med Chem 64, 5874-5885 (2021)) (n=3).
Background: Tetrazolium dyes change colour on reduction, which living cells bring about.

Series [6] deals with M1 and M2 macrophages differentiated from Raw 264.7 cells. The series is described as follows: fluorescence imaging of M1- and M2-differentiated macrophages. The series is classed as cell-based. The conditions noted are these: incubated at 37° C. As to the method: M1- and M2-differentiated macrophages were incubated with 1/1000 dilution of MR2-cy5 stock solution (10 mM in DMSO) for 1 h at 37° C. and counter-stained with DAPI (4′,6-diamidino-2-phenylindole, Invitrogen). The cells were washed with PBS and fluorescence imaging was captured with a digital microscope (Nikon Eclipse TE2000-U).
M1 and M2 polarized differentiation. Raw 264.7 cells (Passage 8 from the cell core of center for Systems Biology at Massachusetts General Hospital, Boston) in 10 mL petri dishes were cultured with Dulbecco's modified eagle medium with high glucose (DMEM, Thermo Fisher Scientific, NY, USA) containing 10% of fetal bovine serum (FBS, Sigma-Aldrich, MO, USA) and 0.5% streptomycin/penicillin (Cellgro) until reaching 80% of confluency. Then differentiating media containing IFN-gamma (100 ng/ml the above medium) for M1 polarization and IL-4 (100 ng/mL) for M2 polarization were added to the dishes, respectively. After 24 h, the M1 and M2 polarized macrophages were ready for the following experiments.

Series [7] has as its target T1, CD206 (Homo sapiens, UniProt P22897).
T1 sequence (P22897 19-1456): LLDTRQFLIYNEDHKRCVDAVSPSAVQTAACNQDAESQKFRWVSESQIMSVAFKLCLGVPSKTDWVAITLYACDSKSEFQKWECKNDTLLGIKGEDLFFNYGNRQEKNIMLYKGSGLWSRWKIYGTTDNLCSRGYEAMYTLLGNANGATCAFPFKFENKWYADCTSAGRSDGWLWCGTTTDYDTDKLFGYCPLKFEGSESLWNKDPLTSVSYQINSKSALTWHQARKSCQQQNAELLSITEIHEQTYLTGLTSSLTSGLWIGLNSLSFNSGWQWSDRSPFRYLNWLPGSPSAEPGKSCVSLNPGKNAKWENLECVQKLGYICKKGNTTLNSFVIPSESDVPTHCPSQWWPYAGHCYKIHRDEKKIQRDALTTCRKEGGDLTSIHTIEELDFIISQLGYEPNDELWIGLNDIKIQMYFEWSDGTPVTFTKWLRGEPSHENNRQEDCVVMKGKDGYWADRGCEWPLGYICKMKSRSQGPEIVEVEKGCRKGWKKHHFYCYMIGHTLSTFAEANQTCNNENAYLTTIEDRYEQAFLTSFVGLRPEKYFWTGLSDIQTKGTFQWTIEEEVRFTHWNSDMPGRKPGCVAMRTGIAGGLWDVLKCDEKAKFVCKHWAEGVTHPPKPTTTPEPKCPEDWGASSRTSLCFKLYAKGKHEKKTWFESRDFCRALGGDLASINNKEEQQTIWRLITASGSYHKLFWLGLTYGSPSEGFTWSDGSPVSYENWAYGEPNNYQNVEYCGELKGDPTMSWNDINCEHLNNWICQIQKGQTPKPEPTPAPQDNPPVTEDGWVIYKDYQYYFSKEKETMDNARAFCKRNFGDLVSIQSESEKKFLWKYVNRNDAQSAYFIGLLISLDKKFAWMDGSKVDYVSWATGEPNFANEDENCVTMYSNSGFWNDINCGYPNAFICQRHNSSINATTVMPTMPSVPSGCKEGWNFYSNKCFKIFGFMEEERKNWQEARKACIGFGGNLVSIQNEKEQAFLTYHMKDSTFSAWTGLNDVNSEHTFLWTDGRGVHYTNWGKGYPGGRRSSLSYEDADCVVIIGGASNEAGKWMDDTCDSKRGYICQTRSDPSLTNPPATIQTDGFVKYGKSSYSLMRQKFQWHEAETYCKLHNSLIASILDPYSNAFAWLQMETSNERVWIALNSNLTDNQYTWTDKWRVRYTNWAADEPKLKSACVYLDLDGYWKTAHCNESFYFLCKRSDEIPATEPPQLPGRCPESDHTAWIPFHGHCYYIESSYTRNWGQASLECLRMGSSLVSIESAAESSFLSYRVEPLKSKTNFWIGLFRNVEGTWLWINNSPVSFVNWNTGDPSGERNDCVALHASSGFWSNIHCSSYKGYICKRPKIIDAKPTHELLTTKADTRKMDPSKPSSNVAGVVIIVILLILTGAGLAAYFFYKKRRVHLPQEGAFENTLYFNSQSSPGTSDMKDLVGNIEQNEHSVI
The conditions noted are these: read-out: binding affinity to CD206 (IC50); cited from earlier work.

Series [8] can be described thus: PET imaging of [68]Ga-MannGaFish. The conditions noted are these: in vivo.

Take `O=C([O-])CN1CCN(CC(=O)[O-])CCN(CC(=O)O)CCN(CC(=O)[O-])CC1.[Gd+3]` [DOTA-Gd, reference compound]: the “contrast-to-noise ratio (CNR) time course” value in series [1] was “decreased significantly 15 min post-injection; also recorded: decreased rapidly after peaking at 15 min post-injection”.
As to `O=C([O-])CN1CCN(CC(=O)[O-])CCN(C(CCC(=O)NC(COC2OC(CO)C(O)C(O)C2O)COC2OC(CO)C(O)C(O)C2O)C(=O)[O-])CCN(CC(=O)O)CC1.[Gd+3]` (stereo not shown) [MannGdFish], the “blood half-life, fast phase” value in series [2] is recorded as 0.3 min. In addition, the “blood half-life, slow phase” value in series [2] was determined as 6.1 min. Further, in series [3], the “relaxivity (r1)” value amounted to 5.2 mmol⁻¹ s⁻¹. Moreover, in series [1] (60 min, wound healing day 7), the “MR signal compared to DOTA-Gd” value is listed as “much higher in comparison with that of DOTA-Gd; also recorded: much higher compared to that of DOTA-Gd”. The “contrast-to-noise ratio (CNR) time course” value in series [1] is listed as “slow decrease of CNR”. Besides, in series [1] (wildtype wound healing mice, day 7), the “CNR compared to Mann2-DTPA-Gd” value is “slightly higher CNRs and similar dynamic profile as that of Mann2-DTPA-Gd; also recorded: slightly higher compared to that of Mann2-DTPA-Gd”. The “gadolinium in wound versus normal skin” value in series [4] (3 h after administration, wound 24 h post-injury) is “low and not significantly different compared to that in the normal skin”; in series [4] (day 7) it was “higher in the wound than that in the normal skin”. Further, the “major organs containing gadolinium” value in series [4] (3 h and day 7) is “liver and spleen being the major organs containing gadolinium”. Also, the “accumulation or retention of Gd in the body” value in series [4] (3 h and day 7, ICP-MS) is under 0.5 nmol Gd per gram tissue. Also, the “cytotoxicity: concentration up to which no cytotoxic effect was observed” value in series [5] is over 5 mM.
As for `CC[N+]1=C(/C=C/C=C/C=C2/N(CCCCCC(=O)NC3C(O)OC(CO)C(O)C3O)c3ccc(S(=O)(=O)O)cc3C2(C)C)C(C)(C)c2cc(S(=O)(=O)[O-])ccc21` (stereo not shown) [MR1-cy5], the “fluorescence signal, M2 versus M1 macrophages (specificity)” value in series [6] is reported as “low specificity to M2 macrophages”.
Same read-out and setting: for `CC[N+]1=C(/C=C/C=C/C=C2/N(CCCCCC(=O)NC(COC3OC(CO)C(O)C(O)C3O)COC3OC(CO)C(O)C(O)C3O)c3ccc(S(=O)(=O)O)cc3C2(C)C)C(C)(C)c2cc(S(=O)(=O)[O-])ccc21` (stereo not shown) [MR2-cy5] the value was “much higher signal from M2 macrophages than that from M1 macrophages; also recorded: much higher signal in M2 macrophages compared to that in M1 macrophages”.
In the case of `O=C[C@@H](O)[C@@H](O)[C@H](O)[C@H](O)CO` [D-mannose], the pIC50 in series [7] was 2.26.
Regarding `O=C([O-])CN1CCN(CC(=O)[O-])CCN(C(CCC(=O)NC(COC2OC(CO)C(O)C(O)C2O)COC2OC(CO)C(O)C(O)C2O)C(=O)[O-])CCN(CC(=O)O)CC1.[68Ga+3]` (stereo not shown) [[68]Ga-MannGaFish], the “uptake in organs on PET imaging” value in series [8] was “low uptakes in the lungs and heart”.

As usually defined, the pIC50 is −log10 of the IC50, conventionally taken in molar units.
